Assay results as given in BindingDB's records for doi:10.1021/jm050680m (Johnson & Johnson Pharmaceutical Research and Development, 2005).

What was measured:
[1] = Antiproliferative activity against PDGF-BB stimulated HCASMC
[2] = as above; remark: listed apart in the source

| SMILES | IC50 [1] | IC50 [2] |
| --- | --- | --- |
| COc1cc2c(cc1OC)-c1n[nH]c(Nc3cccc(Br)c3)c1C2 [3-bromo-N-(6,7-dimethoxy-2,4-dihydroindeno[1,2-c]pyrazol-3-yl)phenylamine] | 32 nM | – |
| COC(=O)c1cccc(Nc2[nH]nc3c2Cc2cc(OC)c(OC)cc2-3)c1 [3-carbomethoxy-N-(6,7-dimethoxy-2,4-dihydroindeno[1,2-c]pyrazol-3-yl)phenylamine] | – | 11 nM |
| COc1cc2c(cc1OC)-c1n[nH]c(Nc3cccc(C(F)(F)F)c3)c1C2 [3-trifluoromethyl-N-(6,7-dimethoxy-2,4-dihydroindeno[1,2-c]pyrazol-3-yl)phenylamine] | – | 1 nM |
| COc1cccc2c1Cc1c-2n[nH]c1Nc1ccccc1 [(5-methoxy-2,4-dihydroindeno[1,2-c]pyrazol-3-yl)phenylamine] | – | 487 nM |
| COc1cc2c(cc1OC)-c1n[nH]c(Nc3cccc(F)c3)c1C2 [JNJ-10198409] | – | 3 nM |
